The experiment relates to N-linked glycosylation (OST) in CHO-ER-LucT cells. Nature of the experiment: CHO-ER-LucT luminescence assay for inhibition of N-linked glycosylation. In kind it is cell-based. The settings on record: for Emax: 24 h, [compound's fold change-1.0 (DMSO)]/[NGI-1 fold change-1.0 (DMSO)]*100, read-out: Max activity (% NGI-1); for AC50: CHO-ER-LucT cells, 24 hrs exposure, seven-point dose dilution, luminescence. On the procedure:
The CHO-ER-LucT cells have been previously described (Contessa et al., 2010, Clinical Cancer Research, 16(12):3205-14) and are used for testing analog IC50 for inhibition of N-linked glycosylation in 96 or 384 well plate format. In these cells induction of luminescence is dependent on inhibition of glycosylation (and OST inhibition), and is determined after 24 hrs of exposure to the analog following the addition of luciferin substrate. The luminescent signal is then quantified using standard plate readers that detect luminescence (e.g., Biotek synergy). Experiments are performed over a seven-point dose dilution to generate dose response data and to identify IC50 values and maximal activity compared to controls. Data is transformed to log 10 values to generate a sigmoidal shaped dose response curve and fitted using nonlinear regression (curve fit) in GraphPad Prism7.
All HL compounds were tested in CHO-ER-LucT cells. IC50 (AC50) was estimated in following method: Concentration X is converted to logarithm (log10) to generate sigmoidal shape curve and dose response curve is generated using Nonlinear regression (curve fit) in Prism. EC50 (AC50) is calculated using log(agonist) vs response-(three parameters)] which uses standard Hill slope (=1).
Max activity: [compound's fold change−1.0 (DMSO)]/[NGI−1 fold change−1.0 (DMSO)]*100(%) (Eq. 1)

Structures are written as SMILES.

Drawing on patent publication US20240010641A1, “N-Linked Glycosylation Inhibitors and Methods of Using Same” (YALE UNIVERSITY, priority 2020, published 2024), this text covers Emax and AC50 for 35 compounds.

For the compound `Cc1nc(NC(=O)c2cc(S(=O)(=O)N3CCOCC3)ccc2N(C)C2CCCC2)sc1C` [Example 9, 2-(cyclopentyl(methyl)amino)-N-(4,5-dimethylthiazol-2-yl)-5-(morpholinosulfonyl)benzamide], the Emax was 83.5% and the AC50 was 165 nM.

As for `CCc1cnc(NC(=O)c2cc(S(=O)(=O)N3CCOCC3)cnc2N(C)CC2CC2)s1` [Example 26, 2-((cyclopropylmethyl)(methyl)amino)-N-(5-ethylthiazol-2-yl)-5-(morpholinosulfonyl)nicotinamide], the Emax worked out at 104% and the concentration at half-maximal activity (AC50) was 851 nM.

In the case of `CN(CC1CC1)c1ncc(S(=O)(=O)N(C)C)cc1C(=O)Nc1nc2c(s1)COCC2` [Example 24, 2-((cyclopropylmethyl)(methyl)amino)-N-(6,7-dihydro-4H-pyrano[4,3-d]thiazol-2-yl)-5-(N,N-dimethylsulfamoyl)nicotinamide], the Emax turned out to be 43% and the concentration at half-maximal activity (AC50) was found to be 17300 nM.

On to `Cc1nc(NC(=O)c2cc(S(=O)(=O)N(C)C)ccc2N(C)C2CCCC2)sc1C` [Example 1, 2-(cyclopentyl(methyl)amino)-5-(N,N-dimethylsulfamoyl)-N-(4,5-dimethylthiazol-2-yl)benzamide], for which the Emax was determined as 81% and the half-maximal activity concentration (AC50) stood at 376 nM.

For `Cc1cnc(NC(=O)c2cc(S(=O)(=O)N(C)C)cnc2N2CCCC2)s1`, the Emax was found to be 50.4% and the concentration at half-maximal activity (AC50) came to 70400 nM.

Regarding `CCc1cnc(NC(=O)c2cc(S(=O)(=O)N(C)C)ccc2N(C)CC)s1` [Example 13, 5-(N,N-dimethylsulfamoyl)-2-(ethyl(methyl)amino)-N-(5-ethylthiazol-2-yl)benzamide], the Emax came out at 114% and the half-maximal activity concentration (AC50) was determined as 294 nM.

In the case of `CCc1cnc(NC(=O)c2cc(S(=O)(=O)N3CCOCC3)ccc2N(C)C2CCCCC2)s1` [Example 6, 2-(cyclohexyl(methyl)amino)-N-(5-ethylthiazol-2-yl)-5-(morpholinosulfonyl)benzamide], the Emax is 148% and the AC50 amounted to 215 nM.

Turning to `CCc1cnc(NC(=O)c2cc(S(=O)(=O)N3CCOCC3)ccc2N(C)C2CCC2)s1` [Example 7, 2-(cyclobutyl(methyl)amino)-N-(5-ethylthiazol-2-yl)-5-(morpholinosulfonyl)benzamide], the Emax was 138% and the AC50 came out at 243 nM.

In the case of `CCc1cnc(NC(=O)c2cc(S(=O)(=O)N(C)C)cnc2N(C)CC2CC2)s1` [Example 22, 2-((cyclopropylmethyl)(methyl)amino)-5-(N,N-dimethylsulfamoyl)-N-(5-ethylthiazol-2-yl)nicotinamide], the Emax came to 126% and the AC50 was 572 nM.

Regarding `Cc1nc(NC(=O)c2cc(S(=O)(=O)N3CCOCC3)ccc2N(C)C2CC2)sc1C`, the Emax was 36.7% and the AC50 was found to be 2530 nM.

For `Cc1nc(NC(=O)c2cc(S(=O)(=O)CC3CC3)ccc2N(C)C2CCCC2)sc1C`, the Emax is 41% and the AC50 came to 2430 nM.

Consider `CCc1cnc(NC(=O)c2cc(S(=O)(=O)N(C)Cc3ccccc3)ccc2N(C)CC2CC2)s1` [Example 18, 5-(N-benzyl-N-methylsulfamoyl)-2-((cyclopropylmethyl)(methyl)amino)-N-(5-ethylthiazol-2-yl)benzamide], for which the Emax is 71.2% and the AC50 came out at 266 nM.

As to `CCc1cnc(NC(=O)c2cc(S(=O)(=O)N(C)C)ccc2N(C)C2CCCCC2)s1` [Example 11, 2-(cyclohexyl(methyl)amino)-5-(N,N-dimethylsulfamoyl)-N-(5-ethylthiazol-2-yl)benzamide], the Emax came out at 52.9% and the AC50 amounted to 248 nM.

Regarding `CCc1cnc(NC(=O)c2cc(S(=O)(=O)N3CCOCC3)ccc2N(C)CC)s1`, the Emax is 130% and the AC50 is 620 nM.

With `Cc1cnc(NC(=O)c2cc(S(=O)(=O)N(C)C)cnc2N(C)CC2CC2)s1`, the Emax turned out to be 48.3% and the AC50 is 3020 nM.

Consider `CCc1cnc(NC(=O)c2cc(S(=O)(=O)CC3CC3)ccc2N(C)CC2CC2)s1`, for which the Emax worked out at 88.3% and the half-maximal activity concentration (AC50) was determined as 2590 nM.

`CCc1csc(NC(=O)c2cc(S(=O)(=O)N3CCOCC3)ccc2N(C)CC2CC2)n1` [Example 20, 2-((cyclopropylmethyl)(methyl)amino)-N-(4-ethylthiazol-2-yl)-5-(morpholinosulfonyl)benzamide]: the Emax is 94.2% and the AC50 was determined as 548 nM.

In the case of `Cc1nc(NC(=O)c2cc(S(=O)(=O)N(C)C)cc(F)c2N2CCCC2)sc1C` [Example 29, 5-(N,N-dimethylsulfamoyl)-N-(4,5-dimethylthiazol-2-yl)-3-fluoro-2-(pyrrolidin-1-yl)benzamide], the Emax is 62.6% and the AC50 was 4990 nM.

Turning to `C=CCN(C)c1ccc(S(=O)(=O)N2CCOCC2)cc1C(=O)Nc1ncc(CC)s1` [Example 8, 2-(allyl(methyl)amino)-N-(5-ethylthiazol-2-yl)-5-(morpholinosulfonyl)benzamide], the Emax was determined as 102% and the AC50 is 446 nM.

In the case of `CCc1cnc(NC(=O)c2cc(S(=O)(=O)N(C)C)ccc2N(C)C(C)C)s1` [Example 14, 5-(N,N-dimethylsulfamoyl)-N-(5-ethylthiazol-2-yl)-2-(isopropyl(methyl)amino)benzamide], the Emax stood at 128% and the AC50 amounted to 372 nM.

As to `CCc1cnc(NC(=O)c2cc(S(=O)(=O)N(C)C)ccc2N(C)CC2CC2)s1` [Example 12, 2-((cyclopropylmethyl)(methyl)amino)-5-(N,N-dimethylsulfamoyl)-N-(5-ethylthiazol-2-yl)benzamide], the Emax was 133% and the AC50 was 77 nM.

For the compound `CCc1cnc(NC(=O)c2cc(S(=O)(=O)N3CCOCC3)c(F)cc2N(C)CC2CC2)s1` [Example 30, 2-((cyclopropylmethyl)(methyl)amino)-N-(5-ethylthiazol-2-yl)-4-fluoro-5-(morpholinosulfonyl)benzamide], the Emax was 96.4% and the AC50 is 371 nM.

With `CN(CC1CC1)c1ccc(S(=O)(=O)N2CCOCC2)cc1C(=O)Nc1ncc(Cc2ccccc2)s1`, the Emax turned out to be 116% and the AC50 is 13000 nM.

Take `Cc1nc(NC(=O)c2cc(S(=O)(=O)N(C)C)cnc2N(C)CC2CC2)sc1C` [Example 23, 2-((cyclopropylmethyl)(methyl)amino)-5-(N,N-dimethylsulfamoyl)-N-(4,5-dimethylthiazol-2-yl)nicotinamide]: the Emax came to 59% and the AC50 was 863 nM.

Take `CN(c1ccc(S(=O)(=O)N(C)C)cc1C(=O)Nc1nc2c(s1)COCC2)C1CCCC1`: the Emax came to 46.2% and the AC50 stood at 1020 nM.

Turning to `Cc1csc(NC(=O)c2cc(S(=O)(=O)N(C)C)ccc2N2CCC(F)(F)C2)n1` [Example 35, 2-(3,3-difluoropyrrolidin-1-yl)-5-(N,N-dimethylsulfamoyl)-N-(4-methylthiazol-2-yl)benzamide], the Emax came to 70% and the concentration at half-maximal activity (AC50) was 3000 nM.

With `CCc1cnc(NC(=O)c2cc(S(=O)(=O)N(C)C)ccc2N(CC)CC)s1` [Comparator, reference compound], the Emax turned out to be 46.8% and the AC50 was 3360 nM.

With `Cc1nc(NC(=O)c2cc(S(=O)(=O)N3CCOCC3)c(F)cc2N(C)CC2CC2)sc1C` [Example 31, 2-((cyclopropylmethyl)(methyl)amino)-N-(4,5-dimethylthiazol-2-yl)-4-fluoro-5-(morpholinosulfonyl)benzamide], the Emax was 61.2% and the AC50 came to 431 nM.

Turning to `CCc1cnc(NC(=O)c2cc(S(=O)(=O)N3CCOCC3)ccc2N(C)C(C)C)s1` [Example 5, N-(5-ethylthiazol-2-yl)-2-(isopropyl(methyl)amino)-5-(morpholinosulfonyl)benzamide], the Emax is 162% and the AC50 was determined as 270 nM.

As to `CCc1cnc(NC(=O)c2cc(S(=O)(=O)N(C)C)ccc2N(C)CC2CCC2)s1` [Example 16, 2-((cyclobutylmethyl)(methyl)amino)-5-(N,N-dimethylsulfamoyl)-N-(5-ethylthiazol-2-yl)benzamide], the Emax came out at 82.2% and the AC50 turned out to be 744 nM.

As to `CCc1cnc(NC(=O)c2cc(S(=O)(=O)N(C)C)cc(F)c2N2CCCC2)s1`, the Emax came out at 97.3% and the AC50 worked out at 3760 nM.

Regarding `CCc1cnc(NC(=O)c2cc(S(=O)(=O)N3CCOCC3)ccc2N(C)C2CC2)s1`, the Emax came out at 129% and the AC50 came to 2500 nM.

For `CCc1cnc(NC(=O)c2cc(S(=O)(=O)N(C)C)ccc2N(C)C2CC2)s1`, the Emax amounted to 86.8% and the AC50 stood at 1190 nM.

With `C=CCN(C)c1ccc(S(=O)(=O)N(C)C)cc1C(=O)Nc1ncc(CC)s1`, the Emax came out at 108% and the half-maximal activity concentration (AC50) is 1100 nM.

On to `CCc1cnc(NC(=O)c2cc(S(=O)(=O)N(C)C)ccc2N(C)C2CCCC2)s1` [Example 2, 2-(cyclopentyl(methyl)amino)-5-(N,N-dimethylsulfamoyl)-N-(5-ethylthiazol-2-yl)benzamide], for which the Emax was determined as 129% and the AC50 was 120 nM.

The term AC50 denotes the concentration at which the activity in the assay is half-maximal.
